In ChEMBL document CHEMBL1151365, “The isolation and identification of several trichothecene mycotoxins from Fusarium heterosporum” (J Nat Prod, 1981) one finds ED50, Activity and inhibition data, which are given here for six molecules.

Format in all cases: organism-based
For one data set, the species on record is Oryctolagus cuniculus. The data set is described as follows: Dermal toxicity in rabbit skin. Particulars: in vivo.
Data set [1] relates to Triticum aestivum. The data set is described as follows: (§1) Toxicity in Triticum aestivum assessed as inhibition of coleoptiles growth at 1 mM. As to conditions: in vivo, 1000 µM.
In data set [2] the test system is Triticum aestivum. As to the kind of experiment: Toxicity in Triticum aestivum assessed as inhibition of coleoptiles growth at 0.01 mM. As to conditions: in vivo, 10 µM.
Data set [3] concerns Triticum aestivum. As to the kind of experiment: Toxicity in Triticum aestivum assessed as inhibition of coleoptiles growth at 0.1 mM. As to conditions: in vivo, 100 µM.
Data set [4] can be described thus: as §1. As to conditions: Triticum aestivum coleoptiles, read-out: Activity.

`CC1=C[C@H]2O[C@@H]3[C@H](O)[C@@H](O)[C@](C)([C@@]2(CO)C[C@@H]1O)[C@]31CO1` gave an ED50 in the data set filed under Oryctolagus cuniculus of over 1.28 µg.

On to `CC(=O)OC[C@]12C[C@H](OC(=O)CC(C)(C)O)C(C)=C[C@H]1O[C@@H]1[C@H](O)[C@@H](O)[C@@]2(C)[C@]12CO2`, for which the Activity result with Triticum aestivum [1], in the data set with Triticum aestivum [2] and in the data set on Triticum aestivum [3] was “Toxic” throughout. The molecule also registered an ED50 in the data set filed under Oryctolagus cuniculus of over 1.28 µg.

Turning to `CC(=O)OC[C@]12C[C@H](O)C(C)=C[C@H]1O[C@@H]1[C@H](O)[C@@H](O)[C@@]2(C)[C@]12CO2`, the inhibition at 1000 µM in data set [4] turned out to be 59%. For the same molecule, the ED50 in the data set filed under Oryctolagus cuniculus was over 1.28 µg.

Regarding `CC1=C[C@H]2O[C@@H]3[C@H](O)[C@@H](O)[C@](C)([C@@]2(CO)C[C@@H]1OC(=O)CC(C)(C)O)[C@]31CO1`, the Activity entry with Triticum aestivum [1], in the data set on Triticum aestivum [2] and in the data set on Triticum aestivum [3] was “Toxic” each time. Further, the ED50 in the data set listed under Oryctolagus cuniculus was over 1.28 µg.

As to `CC(=O)OC[C@]12C[C@H](OC(=O)CC(C)C)C(C)=C[C@H]1O[C@@H]1[C@H](O)[C@@H](O)[C@@]2(C)[C@]12CO2` [HT-2 TOXIN], the Activity entry in the data set with Triticum aestivum [1], in the data set on Triticum aestivum [2] and in the data set on Triticum aestivum [3] was “Toxic” each time. In the data set listed under Oryctolagus cuniculus, this molecule came in with an ED50 of 0.16 µg.

For `CC(=O)OC[C@]12C[C@H](OC(=O)CC(C)C)C(C)=C[C@H]1O[C@@H]1[C@H](O)[C@@H](OC(C)=O)[C@@]2(C)[C@]12CO2` [T-2 TOXIN], the Activity result in the data set with Triticum aestivum [1], in the data set on Triticum aestivum [2] and in the data set with Triticum aestivum [3] was “Toxic” each time. In addition, the ED50 in the data set filed under Oryctolagus cuniculus was under 0.16 µg.
